By melting point is commonly meant the temperature of the solid-liquid transition. The compound `CN1CC(=O)N2[C@@H](c3ccoc3)c3[nH]c4ccccc4c3C[C@@H]2C1=O` (relative stereo) [Example 59, Cis-2,3,6,7,12,12a-Hexahydro-2-Methyl-6-(3-Furyl)-Pyrazino(2′,1′:6,1)Pyrido(3,4-b)Indole-1,4-Dione] showed a melting point of 250 °C.

With `CCCCN1CC(=O)N2[C@@H](c3ccc(NS(C)(=O)=O)cc3)c3[nH]c4ccccc4c3C[C@@H]2C1=O` (relative stereo) [Example 100, Cis-2,3,6,7,12,12a-Hexahydro-2-Butyl-6-(4-Methylsulfonamidophenyl)-Pyrazino(2′,1′:6,1)Pyrido(3,4-b)Indole-1,4-Dione], the melting point stood at 188 °C.

The values above are taken from patent publication US20020035111A1, “Method of inhibiting neoplastic cells with tetracyclic pyrido[3,4-B] indole derivatives” (priority 1998, published 2002).
